Assay results published in patent US8658573B2, “Photo-generated carbohydrate arrays and the rapid identification of pathogen-specific antigens and antibodies” (priority 2006, dated 2014).

tested on: rabbit anti-B. anthracis spore polyclonal IgG antibodies; type: binding

In the case of `COC(=O)CCCCCO[C@@H]1O[C@@H](C)[C@H](O)[C@@H](O)[C@H]1O[C@@H]1O[C@@H](C)[C@H](O)[C@@H](O[C@@H]2O[C@H](C)[C@@H](NC(=O)CC(C)(C)O)[C@H](O)[C@H]2OC)[C@H]1O` [Id# 3, 5-(Methoxycarbonyl)-pentyl 4-(3-hydroxy-3-methylbutanamido)-2-O-methyl-4,6-dideoxy-β-D-glucopyranosyl-(1→3)-α-L-rhamnopyranosyl-(1→2)-α-L-rhamnopyranoside], the “recognition of surface-bound carbohydrate by the antibody (FIG. 2A/2B)” value is reported as “recognized by the antibody”.
`COC(=O)CCCCCO[C@H]1O[C@@H](C)[C@H](O)[C@@H](O)[C@H]1O[C@@H]1O[C@@H](C)[C@H](O)[C@@H](O[C@@H]2O[C@@H](C)[C@H](O)[C@@H](O[C@@H]3O[C@H](C)[C@@H](NC(=O)CC(C)(C)O)[C@H](O)[C@H]3OC)[C@H]2O)[C@H]1O` [Id# 4, 5-(Methoxycarbonyl)-pentyl 4-(3-hydroxy-3-methylbutanamido)-2-O-methyl-4,6-dideoxy-β-D-glucopyranosyl-(1→3)-α-L-rhamnopyranoyl-(1→3)-α-L-rhamnopyranosyl-(1→2)-β-L-rhamnopyranoside] was tested, and the “recognition of surface-bound carbohydrate by the antibody (FIG. 2A/2B)” value was “recognized by the antibody”.
`COC(=O)CCCCCO[C@@H]1O[C@@H](C)[C@H](O)[C@@H](O)[C@H]1O[C@@H]1O[C@@H](C)[C@H](O)[C@@H](O[C@@H]2O[C@@H](C)[C@H](O)[C@@H](O[C@@H]3O[C@H](C)[C@@H](NC(=O)CC(C)(C)O)[C@H](O)[C@H]3OC)[C@H]2O)[C@H]1O` [Id# 5, 5-(Methoxycarbonyl)-pentyl 4-(3-hydroxy-3-methylbutanamido)-2-O-methyl-4,6-dideoxy-β-D-glucopyranosyl-(1→3)-α-L-rhamnopyranoyl-(1→3)-α-L-rhamnopyranosyl-(1→2)-α-L-rhamnopyranoside] was tested, and the “recognition of surface-bound carbohydrate by the antibody (FIG. 2A/2B)” value was “recognized by the antibody”.

Going from `COC(=O)CCCCCO[C@@H]1O[C@H](C)[C@@H](NC(=O)CC(C)(C)O)[C@H](O)[C@H]1OC` [compound 1] to `COC(=O)CCCCCO[C@@H]1O[C@@H](C)[C@H](O)[C@@H](O[C@@H]2O[C@H](C)[C@@H](NC(=O)CC(C)(C)O)[C@H](O)[C@H]2OC)[C@H]1O` [compound 2], the “IgG signal detected by carbohydrate arrays (n = 3), Mean” value (shortened to “IgG signal detected”) rises from 1.44 to 1.65.

Compared with `COC(=O)CCCCCO[C@@H]1O[C@@H](C)[C@H](O)[C@@H](O)[C@H]1O[C@@H]1O[C@@H](C)[C@H](O)[C@@H](O[C@@H]2O[C@H](C)[C@@H](NC(=O)CC(C)(C)O)[C@H](O)[C@H]2OC)[C@H]1O` [compound 3], `COC(=O)CCCCCO[C@H]1O[C@@H](C)[C@H](O)[C@@H](O)[C@H]1O[C@@H]1O[C@@H](C)[C@H](O)[C@@H](O[C@@H]2O[C@@H](C)[C@H](O)[C@@H](O[C@@H]3O[C@H](C)[C@@H](NC(=O)CC(C)(C)O)[C@H](O)[C@H]3OC)[C@H]2O)[C@H]1O` [compound 4] is higher in “IgG signal detected” value: 2.73 for the first, 5.16 for the second.

Compared with `COC(=O)CCCCCO[C@@H]1O[C@@H](C)[C@H](O)[C@@H](O)[C@H]1O[C@@H]1O[C@@H](C)[C@H](O)[C@@H](O[C@@H]2O[C@@H](C)[C@H](O)[C@@H](O[C@@H]3O[C@H](C)[C@@H](NC(=O)CC(C)(C)O)[C@H](O)[C@H]3OC)[C@H]2O)[C@H]1O` [compound 5], `COC(=O)CCCCCO[C@@H]1O[C@@H](C)[C@H](O)[C@@H](O)[C@H]1O[C@@H]1O[C@@H](C)[C@H](O)[C@@H](O[C@@H]2O[C@@H](C)[C@H](O)[C@@H](O)[C@H]2O)[C@H]1O` [compound 17] is lower in “IgG signal detected” value: 5.19 for the first, 0.98 for the second.

Going from `CC(=O)N[C@@H](C=O)[C@@H](O)[C@@H](O)[C@H](O)CO` [compound 11] to `COC(=O)CCCCCO[C@@H]1O[C@@H](C)[C@H](O)[C@@H](O)[C@H]1O` [compound 14], the “IgG signal detected” value falls from 1.03 to 0.97.

First: COC(=O)CCCCCO[C@H]1O[C@@H](C)[C@H](O)[C@@H](O)[C@H]1O [compound 15]
Second: COC(=O)CCCCCO[C@@H]1O[C@@H](C)[C@H](O)[C@@H](O[C@@H]2O[C@@H](C)[C@H](O)[C@@H](O)[C@H]2O)[C@H]1O [compound 16]
The “IgG signal detected” value of the first is lower: 0.95 for the first, 1.00 for the second.

Going from `COC(=O)CCCCCO[C@@H]1O[C@@H](C)[C@H](O)[C@@H](O)[C@H]1O[C@@H]1O[C@@H](C)[C@H](O)[C@@H](O)[C@H]1O` [compound 18] to `COC(=O)CCCCCO[C@H]1O[C@@H](C)[C@H](O)[C@@H](O)[C@H]1O[C@@H]1O[C@@H](C)[C@H](O)[C@@H](O)[C@H]1O` [compound 19], the “IgG signal detected” value falls from 1.26 to 0.98.

Compared with `COC(=O)CCCCCO[C@H]1O[C@@H](C)[C@H](O)[C@@H](O)[C@H]1O[C@@H]1O[C@@H](C)[C@H](O)[C@@H](O[C@@H]2O[C@@H](C)[C@H](O)[C@@H](O)[C@H]2O)[C@H]1O` [compound 20], `CO[C@H]1O[C@H](CO)[C@@H](O)[C@H](O[C@H]2O[C@H](CO)[C@H](O)[C@H](O)[C@H]2O[C@@H]2O[C@@H](C)[C@H](O)[C@@H](O)[C@H]2O)[C@H]1NC(C)=O` [compound 23] is higher in “IgG signal detected” value: 0.95 for the first, 1.01 for the second.

Going from `COC1O[C@H](CO)[C@H](O)[C@H](O)[C@H]1O[C@@H]1O[C@@H](C)[C@H](O)[C@@H](O)[C@H]1O` (some centres unmarked) [compound 21] to `CO[C@@H]1O[C@@H](C)[C@H](O)[C@@H](O[C@@H]2O[C@@H](C)[C@H](O)[C@@H](O)[C@H]2O)[C@H]1O` [compound 24], the “IgG signal detected” value falls from 1.08 to 1.02.

In the case of `CO[C@H]1O[C@H](CO)[C@H](O)[C@H](O)[C@H]1O[C@@H]1O[C@@H](C)[C@H](O)[C@@H](O[C@@H]2O[C@@H](C)[C@H](O)[C@@H](O[C@H]3O[C@H](CO)[C@@H](O)[C@H](O)[C@H]3NC(C)=O)[C@H]2O)[C@H]1O` [compound 22], the “IgG signal detected” value is reported as 0.95.
